Experimental data published in ChEMBL document CHEMBL3046695, “Structure-antifeedant activity relationship of clerodane diterpenoids. Comparative study with withanolides and azadirachtin” (2000).

What follows are molecules tested on Tenebrio molitor (assay: Antifeedant activity against third-instar larvae Tenebrio molitor in compound treated carrot slices assessed as feeding inhibition at 100 ppm). Conditions: in Daucus carota.
Format: functional

| Structure (SMILES) | inhibition at 100 ppm [%] |
| --- | --- |
| C[C@@H]1[C@H](O)C[C@@]23COC(=O)[C@H]2CC[C@H](O)[C@H]3[C@@]1(C)CCC1CCOC1 (stereo not given in full) | 48.4 |
| C/C=C(\C)C(=O)O[C@H]1C[C@@H](OC(C)=O)[C@@]2(C(=O)OC)CO[C@H]3[C@@H](O)[C@@](C)([C@]45O[C@@]4(C)[C@@H]4C[C@H]5O[C@@H]5OC=C[C@@]54O)[C@H]4[C@]1(CO[C@]4(O)C(=O)OC)[C@@H]32 [AZADIRACHTIN A] | 29.6 |
| C[C@H](c1ccc2c(c1)CC[C@H]1[C@H]2C[C@@H]2O[C@@]23CC=CC(=O)[C@]13C)[C@@H]1C[C@@]2(C)O[C@@]2(C)[C@@H](O)O1 | 29.9 |
| C[C@@H]1CC[C@@]2(CO)C(CO)=CCC[C@H]2[C@@]1(C)CCc1ccoc1 | 48.7 |
| CC(=O)OC[C@@]12[C@@H](OC(C)=O)C[C@@H](C)[C@]3(C[C@H](c4ccoc4)OC3=O)[C@H]1CC[C@H](OC(C)=O)[C@]21CO1 | 30.6 |
| C[C@]12C[C@H](C3CCOC3)OC(=O)[C@@H]1CC[C@@]13COC(=O)[C@H]1CCC[C@@H]23 (stereo not given in full) | 49.4 |
| C[C@@H]1CC[C@@]23COC(=O)C2=CCC[C@H]3[C@@]1(C)CCc1ccoc1 | 31 |
| CC(=O)OC[C@@]12[C@@H](OC(C)=O)C[C@@H](C)[C@](C)(CC(=O)c3ccoc3)[C@@H]1CCC[C@]21CO1 | 58 |
| CC(=O)OC[C@@]12[C@@H](OC(C)=O)C[C@@H](C)[C@](C)(C[C@H](OC(C)=O)c3ccoc3)[C@@H]1CCC[C@]21CO1 | 31.4 |
| C[C@]12C[C@H](c3ccoc3)OC(=O)[C@@H]1[C@H](O)C[C@@]13COC(=O)C1=CCC[C@H]32 | 26.6 |
| C[C@H]1CC[C@@]23C(=O)OC(C[C@H]2[C@]12C[C@@H](c1ccoc1)OC2=O)[C@H]1O[C@]13C | 57.9 |
| CC(=O)OC[C@@]12[C@@H](OC(C)=O)C[C@@H](C)[C@]3(C[C@H](c4ccoc4)OC3=O)[C@H]1CCC[C@@H]2C=O | 41 |
| COC1C=C([C@H]2C[C@@]3(C(=O)O2)[C@H](C)C[C@H](OC(C)=O)[C@]2(COC(C)=O)[C@@H]3CCC[C@]23CO3)C(OC)O1 (stereo not given in full) | 47.3 |
| C[C@]12C[C@H](c3ccoc3)OC(=O)[C@@H]1CC[C@@]13COC(=O)C1=CCC[C@H]32 | 22.6 |
| CC1=C(C)C(=O)OC(C2CO[C@@]3(O)C[C@H]4[C@@H](C[C@@H](O)[C@@]5(O)CC=CC(=O)[C@]45C)[C@@H]4CC[C@]2(O)C43)C1 (stereo not given in full) | 31.6 |
| C[C@@H]1CC[C@@]23COC(=O)C2=CCC[C@H]3[C@@]1(C)CCC1COC(=O)C1 (stereo not given in full) | 62.6 |
| CC(=O)OC[C@@]12[C@@H](OC(C)=O)C[C@@H](C)[C@]3(C[C@H](c4ccoc4)OC3=O)[C@H]1CCCC2(O)O | 45 |
| C[C@]12C[C@H](c3ccoc3)OC[C@@H]1CC[C@@]13COC(=O)[C@H]1CCC[C@@H]23 | 46 |
| C[C@]12C[C@H](c3ccoc3)OC(=O)[C@H]1CC[C@@]13COC(=O)[C@H]1C=CC[C@@H]23 | 47.3 |
| CC1=C(C)[C@H]([C@H]2O[C@@]3(O)C[C@H]4[C@@H](C[C@H]5O[C@]56CC=CC(=O)[C@]46C)[C@@H]4CC[C@@](O)([C@@H]2C)[C@]43C)OC1=O [TRECHONOLIDE A] | 44.7 |
| C=C1CCC[C@H]2[C@@](C)(C/C=C(/CO)CCO)[C@H](C)CC[C@@]12C | 57.3 |
| CC(=O)O[C@H](C[C@@]1(C)[C@H](C)CC[C@]2(C)[C@H]1CCC[C@@]21CO1)/C(=C/CO)CO | 51.9 |
| C[C@@H]1[C@H](O)C[C@@]23COC(=O)C2=CC[C@H](O)[C@H]3[C@@]1(C)CCc1ccoc1 | 31.3 |
| CC(=O)OC[C@@]12[C@@H](OC(C)=O)C[C@@H](C)[C@]3(C[C@H](c4ccoc4)OC3=O)[C@H]1CCC[C@]21CO1 [MONTANIN C] | 25 |
| CC1=CC2C[C@@H]3[C@@]1(CC[C@H](C)[C@@]31C[C@@H](c3ccoc3)OC1=O)C(=O)O2 | 62.7 |
